Series [1] in a line: Substrate activity at P-gp in human K562/4 cells assessed as test compound accumulation at 2 uM after 1 to 24 hrs in presence of P-gp inhibitor tariquidar by flow cytometry. It counts as ADME, cell-based.
Series [2] in a line: Drug uptake in human K562 cells at 2 uM after 1 to 24 hrs by flow cytometry. To be noted: k562, 2 µM. The series is classed as ADME, cell-based. In general terms: Flow cytometry measures light scatter and fluorescence of single cells or particles in a stream.
Series [3] in a line: Antiproliferative activity against human K562/4 cells after 72 hrs by MTT assay. It counts as functional, cell-based. To be noted: K562/4, 72 h. A general note: Tetrazolium assays rely on reduction of a dye to a coloured formazan, in cell work by metabolically active cells.
A short description of series [4]: Substrate activity at P-gp in human K562/4 cells assessed as test compound accumulation at 2 uM after 1 to 24 hrs by flow cytometry. The series is classed as ADME, cell-based.
A short description of series [5]: Substrate activity at P-gp in human K562/4 cells assessed as test compound accumulation at 1 uM after 1 to 24 hrs by flow cytometry. The series is classed as ADME, cell-based.
The nature of series [6]: Resistance index, ratio of IC50 for human K562/4 cells to IC50 for human K562 cells. It counts as functional.
The target in series [7] is T1, DNA topoisomerase 1 (Homo sapiens) (UniProt P11387).
T1 sequence (whole entry): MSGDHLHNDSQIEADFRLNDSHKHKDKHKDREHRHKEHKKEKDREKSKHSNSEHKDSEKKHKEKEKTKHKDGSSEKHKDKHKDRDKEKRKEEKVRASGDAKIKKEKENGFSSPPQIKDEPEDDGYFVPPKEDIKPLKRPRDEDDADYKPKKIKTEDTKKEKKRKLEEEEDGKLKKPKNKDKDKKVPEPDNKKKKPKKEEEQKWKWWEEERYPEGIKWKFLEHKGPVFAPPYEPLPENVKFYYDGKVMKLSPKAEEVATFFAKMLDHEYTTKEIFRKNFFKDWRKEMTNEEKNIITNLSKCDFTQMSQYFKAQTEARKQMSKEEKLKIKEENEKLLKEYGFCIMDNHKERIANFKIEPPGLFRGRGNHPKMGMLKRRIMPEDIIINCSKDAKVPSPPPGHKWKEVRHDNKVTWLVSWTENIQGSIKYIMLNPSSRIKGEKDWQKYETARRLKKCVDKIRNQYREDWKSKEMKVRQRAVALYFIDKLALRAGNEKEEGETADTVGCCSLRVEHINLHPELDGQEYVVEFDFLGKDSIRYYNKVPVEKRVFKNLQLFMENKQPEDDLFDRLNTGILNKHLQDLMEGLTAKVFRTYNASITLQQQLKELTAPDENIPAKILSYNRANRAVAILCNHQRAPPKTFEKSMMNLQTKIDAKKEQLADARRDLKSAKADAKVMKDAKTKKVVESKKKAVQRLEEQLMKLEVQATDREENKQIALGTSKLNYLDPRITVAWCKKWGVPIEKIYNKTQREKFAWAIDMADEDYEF
Description: Inhibition of human topoisomerase-1 at 1 to 30 uM using supercoiled pBR322 DNA as substrate after 30 mins by agarose gel electrophoresis method.

Another series relates to HeLa. Description: Antiproliferative activity against human HeLa cells after 72 hrs by MTT assay. The series is classed as functional, cell-based.
The species entered for series [8] is Homo sapiens. Description: Cell cycle arrest in human K562/4 cells at 1 uM up to 48 hrs by propidium iodide staining based flow cytometry. The series is classed as functional.
The subject of a further series is L1210. Description: Antiproliferative activity against mouse L1210 cells after 48 hrs by MTT assay. To be noted: L1210, 48 h. It counts as functional, cell-based.
Series [9] is described as follows: Resistance index, ratio of IC50 for p53 knockout human HCT116 cells to IC50 for human HCT116 cells. The series is classed as functional.
Series [10] has as its system K562. Description: Cell cycle arrest in human K562 cells at 1 uM up to 48 hrs by propidium iodide staining based flow cytometry. The series is classed as functional.
A further series has as its system CCRF-CEM. Put plainly: Antiproliferative activity against human CEM cells after 72 hrs by MTT assay. The series is classed as functional, cell-based.
Series [11] has as its system K562. Description: Antiproliferative activity against human K562 cells after 72 hrs by MTT assay. It counts as functional, cell-based. To be noted: K562, 72 h.
The test system of series [12] is HCT-116. Description: Antiproliferative activity against p53 knockout human HCT116 cells after 72 hrs by MTT assay. To be noted: HCT-116, 72 h. The series is classed as functional, cell-based.
Series [13] deals with HCT-116. Description: Antiproliferative activity against human HCT116 cells after 72 hrs by MTT assay. The series is classed as functional, cell-based. To be noted: HCT-116, 72 h.
Series [14] concerns MKN-45. Put plainly: Induction of apoptosis in human MKN45 cells at 1 uM after 24 hrs by Annexin V-FITC staining based flow cytometry relative to control. The series is classed as functional.
Series [15] relates to TMK-1. Put plainly: Induction of ROS generation in human TMK1 cells at 0.1 to 1 uM after 30 mins by H2DCFDA staining based flow cytometry. The series is classed as functional, cell-based.
Series [16] relates to K562. Description: Cell cycle arrest in human K562 cells assessed as accumulation at G2/M phase at 1 uM after 24 hrs by propidium iodide staining based flow cytometry. It counts as functional.
For series [17], the system named is TMK-1. Put plainly: Induction of apoptosis in human TMK1 cells at 1 uM after 24 hrs by Annexin V-FITC staining based flow cytometry relative to control. The series is classed as functional.
The test system of series [18] is MKN-45. Put plainly: Induction of apoptosis in human MKN45 cells after 24 hrs by Annexin V-FITC staining based flow cytometry. It counts as functional, cell-based.
A further series deals with Lymphocyte. Put plainly: Cytotoxicity against human lymphocytes assessed as reduction in cell viability at 25 uM after 72 hrs by MTT assay. It counts as cell-based.
Series [19] addresses T1, DNA topoisomerase 1 (Homo sapiens). Put plainly: Inhibition of human topoisomerase-1 at 10 uM using supercoiled pBR322 DNA as substrate after 30 mins by agarose gel electrophoresis method.
Series [20] relates to MKN-45. Put plainly: Induction of ROS generation in human MKN45 cells at 0.1 to 1 uM after 30 mins by H2DCFDA staining based flow cytometry. The series is classed as functional, cell-based.
Series [21] is filed under the species Homo sapiens. Description: Cell cycle arrest in human K562/4 cells assessed as accumulation at G2/M phase at 1 uM after 24 hrs by propidium iodide staining based flow cytometry. It counts as functional.
The test system of series [22] is TMK-1. Description: Induction of apoptosis in human TMK1 cells after 24 hrs by Annexin V-FITC staining based flow cytometry. It counts as functional, cell-based.
A short description of series [23]: Cell cycle arrest in human K562/4 cells assessed as accumulation at sub-G1 phase at 1 uM up to 48 hrs by propidium iodide staining based flow cytometry relative to control. The series is classed as functional.
Series [24] deals with K562. Put plainly: Cell cycle arrest in human K562 cells assessed as accumulation at sub-G1 phase at 1 uM up to 48 hrs by propidium iodide staining based flow cytometry relative to control. The series is classed as functional.

Calls of active or inactive are those of the source. The calls are words filed in the database; no cut-off is given here.

Consider `COc1cccc2c1C(=O)c1c(O)c3c(c(O)c1C2=O)C[C@@](O)(C(=O)CO)C[C@@H]3O[C@H]1C[C@H](N)[C@H](O)[C@H](C)O1` [DOXORUBICIN], for which the Activity result in [1] is listed as “Not Active”; in series [4], “Active”. Also, in series [2], the Drug uptake entry was “Active”. Further, in series [3], inhibition was half-maximal at 9800 nM (IC50).
On to `COc1cc2c(cc1OC)CN(CCc1ccc(NC(=O)c3cc(OC)c(OC)cc3NC(=O)c3cnc4ccccc4c3)cc1)CC2`, for which the Activity entry in series [5] is given as “Not Active”.
With `N[C@H]1CCN(C(=O)c2c(C(F)(F)F)oc3c(O)c4c(c(O)c23)C(=O)c2ccccc2C4=O)C1`, the “Ratio IC50” value in series [6] is reported as 0.6; in series [9] it was 0.9. Besides, in series [7], the inhibition result is “inactive”. Moreover, the IC50 (as a rule, the concentration that inhibits the measured activity by half) in the series with HeLa came out at 4400 nM; in the series with L1210, 1700 nM; with CCRF-CEM it was 4000 nM; in the series on K562 [11], 3600 nM; in [3] it was 2200 nM; in the series on HCT-116 [12] it was 4600 nM. The compound further registered an IC50 in the series on HCT-116 [13] of 5300 nM. The result in the series filed under Homo sapiens [8] and in the series with K562 [10] was Active. Further, the Drug uptake result in [2] is reported as “Active”. Further, the Activity entry in series [4] is reported as “Not Active”.
Turning to `O=C1c2ccccc2C(=O)c2c1c(O)c1occ(C(=O)NC3CCCNC3)c1c2O` (racemic), the Activity with MKN-45 [14] was 60 - 90%; in the series on TMK-1 [17] it was 60 - 90%; in the series on MKN-45 [18] it was “Dose-dependent effect”; in the series with Lymphocyte it was “Non-Toxic”; in the series with TMK-1 [22], “Dose-dependent effect”; in series [4], “Not Active”. For the same compound, the Activity (in series [23]; in the series with K562 [24]) was >70% throughout. For the same compound, the outcome in the series with TMK-1 [15], in the series on K562 [16], in the series on MKN-45 [20] and in the series listed under Homo sapiens [21] was Active. For the same compound, the “Ratio IC50” value is 2.1 in series [6] and 1.3 in series [9]. Moreover, the IC50 turned out to be 700 nM in the series with HeLa; 700 nM in the series on L1210; 900 nM in the series on CCRF-CEM; 600 nM in the series on K562 [11]; 1200 nM in series [3]; 800 nM in the series with HCT-116 [12]. The same compound registered an IC50 with HCT-116 [13] of 600 nM. Besides, in series [2], the Drug uptake entry is “Active”. Further, the inhibition result in series [19] was “Active”.

The values above are taken from ChEMBL document CHEMBL4196018, “New antitumor anthra[2,3-b]furan-3-carboxamides: Synthesis and structure-activity relationship” (Eur J Med Chem, 2018).
